Laboratory results published in PubChem BioAssay (NCI).
Where “and” joins values, the source holds several entries; their conditions need not be identical. Equal values may be shown once.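 Cells were grown in 96-well plates and exposed to each compound for 48 hours at five concentrations; endpoints were interpolated linearly between bracketing concentrations, or set to the highest concentration if not reached. The concentration for 50% growth inhibition is given as GI50. TGI: total growth inhibition.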

Tests used:
Test in all cases: NCI anticancer screen, dose series, 48 h
786-0 renal = test system: 786-0 renal
DU-145 prostate = test system: DU-145 prostate
HCT-15 colon = test system: HCT-15 colon
HL-60(TB) leukemia = test system: HL-60(TB) leukemia
HT29 colon = test system: HT29 colon
NCI/ADR-RES ovarian = test system: NCI/ADR-RES ovarian
SK-MEL-2 melanoma = test system: SK-MEL-2 melanoma
SNB-75 CNS = test system: SNB-75 CNS
SR leukemia = test system: SR leukemia
TK-10 renal = test system: TK-10 renal

SMILES | GI50 (786-0 renal) | TGI (786-0 renal) | GI50 (DU-145 prostate) | TGI (DU-145 prostate) | GI50 (HCT-15 colon) | TGI (HCT-15 colon) | GI50 (HL-60(TB) leukemia) | TGI (HL-60(TB) leukemia) | GI50 (HT29 colon) | TGI (HT29 colon) | GI50 (NCI/ADR-RES ovarian) | TGI (NCI/ADR-RES ovarian) | GI50 (SK-MEL-2 melanoma) | TGI (SK-MEL-2 melanoma) | GI50 (SNB-75 CNS) | TGI (SNB-75 CNS) | GI50 (SR leukemia) | TGI (SR leukemia) [µM] | GI50 (TK-10 renal) | TGI (TK-10 renal)
Cc1nn(-c2nc3ccccc3[nH]2)c2c1C(c1ccc3c(c1)OCO3)CC(=O)N2 (centres undefined) | 3.65 µM | 21.9 µM | 3.23 µM | 9.12 µM | 3.05 µM | > 100 µM | 2.84 µM | 7.74 µM | 3.01 µM | > 23.6 µM | 4.43 µM | > 100 µM | 2.82 µM | 6.96 µM | 2.69 µM | 8.09 µM | 2.82 µM | > 24.9 | 3.14 µM | > 25.8 µM
CC(C)CCc1c(Cl)nc(Cl)nc1Cl |  | 46.3 µM |  | 31.1 µM |  | > 100 µM |  | > 100 µM |  | 28.9 µM |  | > 100 µM |  | > 100 µM |  | 22.3 µM |  |  |  | 35.5 µM
CC1=C(C(=O)Nc2ccc(F)c(Cl)c2)C(c2cccc(Oc3ccccc3)c2)NC(=O)N1 (centres undefined) | 15.4 µM | 29.8 µM | 13.4 µM | 26.4 µM | 15.4 µM | 28.9 µM | 8.07 µM | 24.7 µM | 12 µM | 24.5 µM | 19 µM | 37.2 µM | 17.2 µM | 32.4 µM | 7.53 µM | 20.4 µM |  |  | 8.67 µM | 21.7 µM
N#CC1=C(N)Oc2c(sc3c(F)cccc23)C1c1ccc(F)cc1 (centres undefined) | 0.746 µM | 11.7 µM | 1.79 µM | 12.9 µM | 0.421 µM | 12 µM | 0.284 µM | 2.74 µM | 1.62 µM | 12.5 µM | 0.375 µM | 4.36 µM | 0.982 µM | 18.6 µM | 0.338 µM | 14.9 µM |  |  | 8.24 µM | 25.3 µM
C=C1CC[C@@H]2[C@](C)(COC(C)=O)[C@H](OC(C)=O)CC[C@@]2(C)[C@@H]1C/C=C1/C(=O)OC[C@H]1OC(C)=O | 2.02 µM | 4.34 µM | 4.47 µM | 14.7 µM | 1.58 µM | 4.33 µM | 2.61 µM | 6.78 µM |  |  | 4.22 µM | 19.8 µM | 10.7 µM | 26.3 µM | 2.83 µM | 14.2 µM | 2.59 µM | 10.1 | 3.81 µM | 13.3 µM
O=C1C(=O)c2ccccc2C(O)=C1CCCCCCCCC1CCCCC1 |  | 18.9 µM |  | 33.4 µM |  | 19.2 µM |  |  |  | 31 µM |  | 25.3 µM |  | 30.2 µM |  | 22.9 µM |  | 54.9 |  | 38.7 µM
CN(C)c1ccc(O)c2c1C[C@H]1C[C@H]3[C@H](N(C)C)C(=O)C(C(N)=O)=C(O)[C@@]3(O)C(=O)C1=C2O | 4.45 µM | 22.3 µM | 5.07 µM | 73.6 µM | 4.02 µM | 94 µM | 7.44 µM | 40.4 µM | 10.2 µM | > 100 µM | 11.6 µM | > 100 µM |  |  | 4.88 µM | 68.7 µM | 3.48 µM | 22.3 | 16 µM | > 100 µM
O=C(/C=C/c1ccc(C(F)(F)F)cc1)c1ccc(Nc2nc(NCCO)nc(N3CCOCC3)n2)cc1 | 1.65 µM | 3.1 µM | 2.19 µM | 4.58 µM | 1.89 µM | 4.82 µM | 2.92 µM | 8.64 µM | 2 µM | 4.51 µM | 2.87 µM | 9.52 µM | 8.66 µM | 21.5 µM | 1.84 µM | 7.9 µM | 3.1 µM | > 100 |  | 
CCCCCN(CCCCC)CC(O)c1cc2c(c3ccccc13)CCCC2 (centres undefined) | 3.75 µM and 6.51 µM | 13 µM and 19.1 µM | 10.1 µM and 21.4 µM | 21.7 µM and 48.1 µM | 5.31 µM and 6.52 µM | 20.8 µM and 26.4 µM | 2.53 µM and 7.51 µM |  | 1.35 µM and 2.22 µM | 9.48 µM and 13.6 µM | 6.44 µM and 12.3 µM | 20.1 µM and 27.5 µM | 2.86 µM and 11.5 µM | 8.2 µM and 29 µM | 10.4 µM and 11.9 µM | 22.7 µM and 25.1 µM |  |  | 10.6 µM and 18.2 µM | 22.9 µM and 37.9 µM
CSC1C(=O)c2ccccc2/C(=N/Nc2nc3ccccc3s2)C1C (centres undefined) | 10.1 µM | 19.7 µM | 9.59 µM | 18.3 µM | 7.58 µM | 15.8 µM | 2.14 µM | 43 µM |  |  | 9.94 µM | 25.5 µM | 7.34 µM | 18 µM |  |  | 0.843 µM | 2.52 | 15.6 µM | 42 µM
COC(=O)[C@@H](C)C[C@H](Cc1ccccc1)NC(=O)c1csc([C@@H](C[C@H](C(C)C)N(C)C(=O)C2(NC(=O)[C@H]3CCCCN3C)CC2)OC(C)=O)n1 |  | > 33.3 µM | 0.00348 µM and 0.00333 µM |  | 0.424 µM |  | 0.000657 µM and < 0.00333 µM | 0.00685 µM and < 0.00333 µM | 0.00351 µM and 0.00333 µM | 7.65 µM | > 33.3 µM | > 33.3 µM | 0.00411 µM |  | 0.00434 µM and 0.00333 µM | > 33.3 µM | 0.000486 µM and 0.00333 µM | > 33.3 |  | 
CCCCCCCCCCCC[n+]1ccc(C(N)=O)cc1 | 3.33 µM | 12.7 µM | 4.6 µM | 17.2 µM | 12.7 µM | 43.6 µM |  |  | 2.18 µM | 13.1 µM | > 100 µM | > 100 µM | 3.51 µM | 9.13 µM | 2.08 µM | 6.61 µM | 4.67 µM | > 100 | 1.73 µM | 4.26 µM
OCCNCCNc1c2ccccc2nc2oc3ccccc3c12 | 7.44 µM | 22.2 µM | 10.1 µM | 23.5 µM | 7.57 µM | 53.1 µM | 12.4 µM | 50.5 µM | 4 µM | 21.5 µM | 14.5 µM | 79.1 µM | 20.6 µM | 43.9 µM | 13.2 µM | 27.1 µM |  |  | 22.4 µM | 86.8 µM
COc1cccc2c(=O)c3c(sc12)c(NCCN(C)C)nc1ccccc13 | 1.65 µM | 3.16 µM | 1.68 µM | 3.17 µM | 1.06 µM | 2.41 µM | 1.64 µM | 3.42 µM | 0.648 µM | 2.12 µM | 1.31 µM | 3.03 µM | 1.84 µM | 3.82 µM | 1.47 µM | 8.53 µM | 0.612 µM | 2.45 |  | 
